# Results taken from patent US6525057B2, “Sustained release ranolazine formulations” (CV Therapeutics, Inc., priority 1998, dated 2003).
# Like-named read-outs stand apart in the source and are kept apart here.
# Experiments:
# [1] = Solubility of ranolazine in aqueous solutions by pH; assay type: physicochemical
# [2] = test system: patients with chronic stable angina pectoris; assay: Example 4: safety, hemodynamics and tolerability; assay type: in vivo, human
# Description: After each 1 week period, patients returned to the exercise laboratory in the morning, at least 1 hour after a light breakfast, for an ETT. This was designated the trough ETT; the trough ETTs were performed at the same time of day for each patient. After completing the trough ETT, the patient received the next scheduled blinded medication dose from the blister pack used that week. Another ETT was performed 1 hour after the administered dose. This was designated the peak ETT. Blood samples were obtained at trough (approximately 8 hours after dosing) and at peak (1 hour after dosing). Other standard laboratory tests were monitored regularly throughout the study.
# Blood pressure (by cuff) and heart rate were monitored before all ETTs, during the ETT, during the last minute of each stage of the test, at onset angina, at the point of maximum exercise, and during recovery (every minute for 4 minutes, then every 5 minutes until values returned to baseline). Heart rates also was monitored continuously and standard 12-lead ECG recordings were done immediately before exercise with the patient standing on the treadmill, at the end of each stage of exercise, at the maximally tolerated exercise load, and at the termination of exercise.
# [3] = Example 8: Day 5 pharmacokinetics of racemic ranolazine and enantiomers, SR 1500 and 2000 mg bid; assay type: in vivo, human; details: for Tmax / Cmax / AUC: male, human, plasma, oral; for AUC: read-out: AUC96-108h
# Description: This Example evaluated the safety and tolerability of administering racemic ranolazine free base formulations as in Example 2D. The individual and mean concentrations of racemic ranolazine and its enantiomers, (R)-(+)-N-(2,6-dimethylphenyl)-4-[2-hydroxy-3-(2-methoxyphenoxy)-propyl]-1-piperazineacetamide, (S)-(−)-N-(2,6-dimethylphenyl)-4-[2-hydroxy-3-(2-methoxyphenoxy)-propyl]-1-piperazineacetamide in human plasma were also determined.
# The study was performed with ascending doses of sustained release ranolazine dosage forms. Before and at intervals during and after the dosing period, blood samples were drawn for ranolazine assay and blood pressure, heart rate, ECG and symptoms were monitored throughout. Data summaries were reviewed after each phase before proceeding to the next phase of the study.
# Eight subjects, all healthy male volunteers aged between 18 and 40 entered and all completed the study and were available for pharmacokinetic and safety analysis. The subjects were each given doses of the various types of ranolazine free base in the form of sustained release tablets including 500 mg and 750 mg tablets or with matching placebo as necessary (2×750 mg size plus 1×500 mg size) to make unit oral doses of 1500 and 2000 mg.
# In each phase: one dose bid for four days with a single dose on Day 5. On day 5 each volunteer underwent a full pharmacokinetic profile including supine and erect blood pressure (BP) and heart rate, ECG data, adverse events, clinical chemistry and hematology results, urinalysis results.
# These tests were made using two-sided t-tests with estimates of variability from the ANOVA models. Steady state was also assessed by comparing means for C48h, C72h and C96h using a mixed effects ANOVA model and untransformed and log, transformed data. For hemodynamic parameters, Day 1 pre-dose treatment means and Day 5 data were compared across treatments via two-sided t-tests using estimates of variability from mixed effects ANOVA models. Ninety and 95% confidence intervals were calculated for the treatment comparisons. No adjustments were made for multiple comparisons.
# [4] = test system: patients with stable angina pectoris; details: after 4 weeks, 1 hour after medication (peak effect), P=NS vs placebo, cited from earlier work
# [5] = Day 5, 1500 mg SR bid (racemic, Example 2D)
# [6] = Day 5, 2000 mg SR bid (racemic, Example 2D)
compound,measurement,setting,value
"COc1ccccc1OCC(O)CN1CCN(CC(=O)Nc2c(C)cccc2C)CC1 (racemic) [ranolazine, (±)-N-(2,6-dimethylphenyl)-4-[2-hydroxy-3-(2-methoxyphenoxy)-propyl]-1-piperazineacetamide]",USP Solubility Class,[1]; Solution pH 4.81,Freely soluble
same,USP Solubility Class,[1]; Solution pH 4.89,Soluble
same,USP Solubility Class,[1]; Solution pH 4.90,Soluble
same,USP Solubility Class,[1]; Solution pH 5.04,Soluble
same,USP Solubility Class,[1]; Solution pH 5.35,Sparingly soluble
same,USP Solubility Class,[1]; Solution pH 5.82,Slightly soluble
same,USP Solubility Class,[1]; Solution pH 6.46,Slightly soluble
same,USP Solubility Class,[1]; Solution pH 6.73,Very slightly soluble
same,USP Solubility Class,[1]; Solution pH 7.08,Very slightly soluble
same,USP Solubility Class,[1]; Solution pH 7.59 (unbuffered water),Very slightly soluble
same,USP Solubility Class,[1]; Solution pH 7.73,Very slightly soluble
same,USP Solubility Class,[1]; Solution pH 12.66,Very slightly soluble
same,ECG intervals or complex morphology,[2]; 3 IR dosing regimens,no drug-related changes
same,"blood glucose concentrations, lipid values or liver function tests",[2]; 3 IR dosing regimens,no clinically significant changes
same,tolerability,[2]; over the plasma concentrations achieved in the study,well tolerated
same,blood pressure or heart rate,[2]; peak ranolazine plasma concentrations,not associated with changes in blood pressure or heart rate
same,double product versus placebo,"[2]; peak ranolazine plasma concentrations, any dosing regimen",no statistically significant differences
same,standing or maximum exercise double product versus placebo,"[2]; trough ranolazine plasma concentrations, per-protocol analysis, 3 dosing regimens",no statistically significant differences
same,Cave,[3]; [5],4126 ± 1995 ng/mL
same,Cmin,[3]; [5],2932 ± 1918 ng/mL
same,Degree of fluctuation,[3]; [5],0.664
same,Cave,[3]; [6],5705 ± 2153 ng/mL
same,Cmin,[3]; [6],4149 ± 2228 ng/mL
same,Degree of fluctuation,[3]; [6],0.591
same,Steady-state plasma levels of ranolazine free base attained by,[3]; SR bid dosing,≤ 4 days
same,Tmax,"[3]; 1500 mg, Day 5, 1500 mg SR bid (racemic, Example 2D), read-out: Median tmax",4 h
same,Tmax,"[3]; 2000 mg, Day 5, 2000 mg SR bid (racemic, Example 2D), read-out: Median tmax",4 h
same,Tmax,"[3]; 2000 mg, within the dose interval, SR 1500 and 2000 mg bid, read-out: tmax values post-dose",1 to 6 h
same,Cmax,[3]; [5],5280 ± 2430 ng/mL
same,AUC,[3]; [5],49500 ng·h/mL
same,Cmax,[3]; [6],7280 ± 2700 ng/mL
same,AUC,[3]; [6],68500 ng·h/mL
same,increase in total exercise duration (±SEM) compared with baseline,[4]; 30 mg tid,0.3 ± 0.2 min
same,increase in total exercise duration (±SEM) compared with baseline,[4]; 60 mg tid,0.6 ± 0.2 min
same,increase in total exercise duration (±SEM) compared with baseline,[4]; 120 mg tid,0.5 ± 0.2 min
